In PMC9820444, “Design and Synthesis of Acridine-Triazole and Acridine-Thiadiazole Derivatives and Their Inhibitory Effect against Cancer Cells” (International Journal of Molecular Sciences, 2022):
Like-named read-outs stand apart in the source and are kept apart here. Marks after values point to notes of the source that are not given here.

Experiments:
[1] = system: zebrafish embryos; parameters: mortality rate of zebrafish embryos: dose or concentration left out as unconfirmed; settings: for MAR (malformation rate) / MOR (mortality rate): zebrafish embryos 72 hpf
Experimental: In this experiment, 2% DMSO was used to dissolve the target products, and the abnormal rate (MAR) and mortality rate (MOR) of zebrafish embryos (72 hpf) were used for statistics.
The zebrafish embryos were collected at 6 hpf and randomly divided into naive control (embryos maintained in distilled water), vehicle control (embryos treated with 2% DMSO), and drug groups. Stock solutions of all drugs were prepared in 2% DMSO as a solubilizing agent and diluted to three concentrations (0.5 mg/mL, 1 mg/mL, and 2 mg/mL). Each group had 20 embryos per test concentration. […] Each compound was evaluated in three independent biological experiments.

[2] = system: large cell lung cancer cells (NCI-H460); test: MTT antiproliferative assay, NCI-H460; assay type: cell-based, human; settings: read-out: Effect against cell viability (IC50), NCI-H460
Experimental: (§1) All newly synthesized acridinyl derivatives (4–6) were screened for their anticancer activities in comparison to the reference compounds, 5-FU and cis-platinum. Compounds 4–6 were tested for their in vitro antitumor activities against HFF, MGC-803, BEL-7404, NCI-H460, and T24 tumor cell lines, and human normal liver cells (LO2), and the results are shown in Table 1. Most of the compounds had strong selective potency against MGC-803 and T24 cancer cells. […] In the T24 cell line assay, many compounds, especially the series of compound 4, had significant activity against T24. This implies that there is a significant increase in potency after the introduction of the aroyl thiourea group. […] To our delight, most 1,2,4-triazolethiones (5) and 1,2,4-thiadiazoles (6) have low toxicity to LO2 compared with the positive control.
(§2) Test samples, including compounds 4–6 and commercial classical anticancer drugs (5-FU and cis-platinum), were screened for their anti-cancer activity against HFF human foreskin fibroblast cells, MGC-803 human gastric cancer cells, BEL-7404 human hepatocellular carcinoma cells, NCI-H460 human large cell carcinoma cells, and T24 human bladder carcinoma cells using the 3-(4,5-dimethylthiazol-2-yl)-2,5-diphenyltetrazoliumbromide (MTT) assay method cited in the literature. The initial concentration of all the test samples was 100 μg/mL, which was serially diluted in complete medium with ten-fold dilutions to give six concentrations per compound. Their cytotoxicity was determined in 96-well flat bottomed microtiter plates. All the test samples were tested in triplicate. The results were expressed as the drug concentration that inhibited cell growth by 50% as compared to the controls (IC50). The IC50 values were calculated from regression lines obtained from the percent cell growth inhibition plotted as a function of the logarithm of the dose.

[3] = system: bladder cancer cells (T24); test: MTT antiproliferative assay, T24; assay type: cell-based, human; settings: read-out: Effect against cell viability (IC50), T24
Experimental: as §1, §2

[4] = system: T24 cells; test: Cell cycle analysis by flow cytometry, T24; assay type: cell-based, human; settings: T24, 8.05 μM (IC50), 48 h; control 22.89%
Experimental: (§3) Compared to control, both compounds 4h and 5d interfered with the cell cycles of T24 and MGC80-3 cells, respectively.
(§4) The apoptosis assay and the cell cycle analysis were carried out by cytometry (FACSVerse, BD, Piscataway, NJ, USA) at an excitation wavelength of 488 nm according to the method described in the literature with slight modifications. The cells were seeded at 2 × 10^6/well and washed by cold PBS. The buffer solutions were prepared using 0.1 M pH 7.4 Hepes/NaOH, 1.4 M NaCl, and 25 mM CaCl2.

[5] = system: human foreskin fibroblasts (HFF); test: MTT antiproliferative assay, HFF; assay type: cell-based; settings: read-out: Effect against cell viability (IC50), HFF
Experimental: as §1, §2

[6] = system: T24 cells; test: Apoptosis by Annexin V-FITC/PI flow cytometry, T24; assay type: cell-based, human; settings: T24, at IC50 concentration (4h 8.05 μM; 6h 8.93 μM); control 1.18%
Experimental: (§5) The apoptosis ratios of MGC80-3 or T24 cell lines induced by the selected compounds at the concentration of IC50 and 0.5 IC50 were quantitatively determined by flow cytometry. Four quadrant images (Q1, Q2, Q3 and Q4) were observed by flow cytometric analysis. The results of apoptosis ratios (including the early and late apoptosis ratios) after 12 h are presented in Figure 6 (MGC80-3) and Figure 7 (T24). […] After treatment with compound 6h, 5.62% (3.43 μM) and 14.25% (6.85 μM) of the cells were apoptotic. These were higher percentages than the one observed in the control (0.586%). […] The results evidently illustrate that representative compounds 5d and 6h or 4h and 6h could suppress cell proliferation by inducing apoptosis in the early apoptotic period.
as §4

[7] = system: subintestinal veins (SIVs) in zebrafish embryos; test: Zebrafish angiogenesis assay (subintestinal veins, NBT/BCIP staining); assay type: in vivo; settings: 1 mg/mL; for area of the meshed pattern vessel and number of vascular branches in the network: zebrafish embryos, compared with blank control group
Text: Currently, the zebrafish has emerged as a valuable model organism to substitute traditional models for studying angiogenesis inhibitors. The genes of zebrafish show 70–80% similarity to humans, and the vascular structure of zebrafish has high similarity to that of other vertebrates. Therefore, the subintestinal veins (SIVs) in the zebrafish embryos are used as evaluation indicators for anti-angiogenesis inhibitors. In this study, NBT/BCIP vascular staining was used to observe the angiogenesis effect of representative drugs (4h, 4f, 5d, 5h, 6g and 6h) in a zebrafish model. […] Compared with the blank control group, the area of the meshed pattern vessel and the number of vascular branches in the network decreased after the administration of compounds 4h, 5d, 5h and 6h.
The 24 hpf zebrafish embryos were dechorionated with a 1 gL^−1 pronase treatment and maintained in distilled water in 12-well cell culture plates (each well contained 20 embryos). A negative control group containing zebrafish embryos in distilled water and a vehicle treatment group that was treated with 2% dimethyl sulfoxide (DMSO) were prepared. The anti-angiogenic compounds were diluted to 1 mg/mL. After incubating at 28 °C for […], the embryos were immersed in 4% paraformaldehyde and dehydrated by gradient ethanol. Subsequently, the embryos were balanced in NTMT buffer (5 M NaCl + 1 M Tris [pH 9.0–9.5] + 1 M MgCl2+ 10% Tween), and nitrotetrazolium blue chloride (NBT) and p-toluidine salt (BCIP) staining were performed. To evaluate the effect of compounds on the angiogenesis of zebrafish embryos, the growth of embryonic sub-intestinal veins (SIVs) at 72 hpf was observed using an IX71 Olympus microscope (Hamburger, Germany). The length of the SIVs was calculated using the image J 1.8.0 software (Bethesda, MD, USA).

[8] = system: human normal liver cells (LO2); test: Cytotoxicity against normal liver cells LO2; assay type: cell-based; settings: MTT, read-out: Effect against cell viability (IC50), LO2
Experimental: as §1, §2

[9] = system: human gastric cancer cells-803 (MGC-803); test: MTT antiproliferative assay, MGC-803; assay type: cell-based; settings: read-out: Effect against cell viability (IC50), MGC-803
Experimental: as §1, §2

[10] = system: hepatocellular carcinoma bel-7404 (BEL-7404); test: MTT antiproliferative assay, BEL-7404; assay type: cell-based, human; settings: read-out: Effect against cell viability (IC50), BEL-7404
Experimental: as §1, §2

[11] = system: MGC80-3 cells; test: Apoptosis by Annexin V-FITC/PI flow cytometry, MGC80-3; assay type: cell-based, human; settings: for apoptosis percentage (early and late): control 0.586%
Experimental: as §5, with “The results of apoptosis ratios (including the early and late apoptosis ratios) after 12 h are presented in Figure 6 (MGC80-3) and Figure 7 (T24).” left out
as §4

[12] = system: MGC80-3 cells; test: Cell cycle analysis by flow cytometry, MGC80-3; assay type: cell-based, human; settings: MGC80-3, 5.52 μM (IC50), 48 h; control 8.91%
Experimental: as §3, §4

COc1ccc(C(=O)NNC(=S)Nc2c3ccccc3nc3ccc(C)cc23)cc1 [4h, 1-2′-methyl acridinyl-3-4’-methoxy benzoyl thiosemicarbazides]
MAR (malformation rate) ([1]; 1 mg/mL): 35% ^a | MOR (mortality rate) ([1]; 1 mg/mL): 15% ^a | MAR (malformation rate) ([1]; 1.5 mg/mL): 85% ^a | MOR (mortality rate) ([1]; 1.5 mg/mL): 15% ^a | MAR (malformation rate) ([1]; 2 mg/mL): 35% ^a | MOR (mortality rate) ([1]; 2 mg/mL): 65% ^a | total mortality and malformation rate ([1]; zebrafish embryos, 2.0 mg.L^−1): 100% | IC50 [2]: 25.4 ± 3.16 µM | IC50 [3]: 8.05 ± 1.06 µM | S phase population [4]: 30.04% | IC50 [5]: > 100 µM | apoptosis ratio [6]: 12.377% | area of the meshed pattern vessel and number of vascular branches in the network [7]: decreased | IC50 [8]: 9.01 ± 0.93 µM | IC50 ([9]; MTT): 11.2 ± 1.46 µM | IC50 [10]: 27.1 ± 2.91 µM

COc1ccc2nc3ccccc3c(-n3c(-c4ccc([N+](=O)[O-])cc4)n[nH]c3=S)c2c1 [5d, 4-(2-methoxyacridin-9-yl)-5-(4-nitrophenyl)-2,4-dihydro-3H-1,2,4-triazole-3-thione]
mortality rate of zebrafish embryos [1]: ~0% | malformation rate of zebrafish embryos ([1]; 2.0 mg.L^−1): less than 15% | MAR (malformation rate) ([1]; 1 mg/mL): 5% ^b | MOR (mortality rate) ([1]; 1 mg/mL): 0% | MAR (malformation rate) ([1]; 1.5 mg/mL): 10% ^a | MOR (mortality rate) ([1]; 1.5 mg/mL): 0% | MAR (malformation rate) ([1]; 2 mg/mL): 10% ^c | MOR (mortality rate) ([1]; 2 mg/mL): 0% | apoptosis percentage (early and late) ([11]; MGC80-3, 0.5 IC50 (5d 2.76 μM; 6h 3.43 μM)): 6.616% | Q4 (live) cells ([11]; MGC80-3, IC50 (5d 5.52 μM; 6h 6.85 μM), 24 h, control 93.0%): 81.2% | apoptosis percentage (early and late) ([11]; MGC80-3, IC50 (5d 5.52 μM; 6h 6.85 μM)): 17.51% | G2 phase population [12]: 13.32% | IC50 ([2]; Homo sapiens): 19.4 ± 1.58 µM | IC50 ([3]; Homo sapiens): 15.9 ± 1.38 µM | IC50 ([5]; Homo sapiens, Fibroblast): 62.9 ± 1.9 µM | reduction in the vessel length (SIVs) compared to the mean vessel length for the controls ([7]; 72 hpf zebrafish embryos): ~50% | area of the meshed pattern vessel and number of vascular branches in the network [7]: decreased | IC50 ([8]; Homo sapiens): 51.8 ± 3.46 µM | IC50 ([9]; Homo sapiens, MGC-803, MTT): 5.52 ± 1.04 µM | IC50 ([10]; Homo sapiens): 25.1 ± 2.89 µM
